According to ChEMBL document CHEMBL1201862, “PubChem BioAssay data set” (2004):
Several values for one entry are separate records, joined by “and”; a condition that tells them apart may be missing. Equal values may be shown once.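 Grown in 96-well plates, cells were treated for 48 hours with each compound at five concentrations. Insufficient inhibition: endpoint recorded as highest concentration tested. Abbreviation: GI50, concentration required for 50% inhibition of growth.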 Activity calls are given as the source filed them. No stated cut-off is given here; in the data, active = GI50 up to about 1.1 µM and inactive = higher.

Experiments:
Assay in all cases: DTP human tumour cell line panel, 48 h
[1] = test system: DMS-114
[2] = test system: DMS-273
[3] = test system: KM-20L2
[4] = test system: LXFL 529
[5] = test system: M19-MEL
[6] = test system: RXF 631
[7] = test system: SNB-78
[8] = test system: XF498
[9] = test system: HOP-18

Row | Compound | GI50 [1] | GI50 [2] | GI50 [3] | GI50 [4] | GI50 [5] | GI50 [6] | GI50 [7] | GI50 [8] | GI50 [9]
1 | CC(C)(C)CC(C)(C)c1cc2c(O)c(c1)Cc1cc(C(C)(C)CC(C)(C)C)cc(c1O)Cc1cc(C(C)(C)CC(C)(C)C)cc(c1O)Cc1cc(C(C)(C)CC(C)(C)C)cc(c1O)C2 | > 100 µM (inactive) | > 100 µM (inactive) | > 100 µM (inactive) | > 100 µM (inactive) | > 100 µM (inactive) | > 100 µM (inactive) | > 100 µM (inactive) | > 100 µM (inactive) | –
2 | CCCCCCCCOC(=O)c1cc([N+](=O)[O-])c(Sc2[nH]cnc3ncnc2-3)c([N+](=O)[O-])c1 | 0.507 µM (active) | 0.425 µM (active) | 1.99 µM (inactive) | – | 6.38 µM (inactive) | – | 2.47 µM (inactive) | 0.67 µM (active) | 1.65 µM (inactive)
3 | CCCCC(/C=N/NC(=N)N)CC.Cc1cc(O)c(C(C)C)cc1S(=O)(=O)O | 24.5 µM (inactive) | 38 µM (inactive) | 45.7 µM (inactive) | 70.8 µM (inactive) | 48.3 µM (inactive) | – | 84.7 µM (inactive) | – | –
4 | Clc1ccc(C2N3CCCCC3[C@@H]3c4[nH]c5ccccc5c4CCN23)cc1 (some centres undefined) | 37.3 µM (inactive) | 42.2 µM (inactive) | 30.7 µM (inactive) | 38.1 µM (inactive) | 23.6 µM (inactive) | – | 37.8 µM (inactive) | 64.4 µM (inactive) | > 100 µM (inactive)
5 | COc1cc(/C=C/c2cccnc2)cc(OC)c1OC | > 100 µM (inactive) | > 100 µM (inactive) | > 100 µM (inactive) | 92.7 µM (inactive) | > 100 µM (inactive) | – | > 100 µM (inactive) | > 100 µM (inactive) | 53.1 µM (inactive)
6 | CC(NC(=O)c1ccccc1)C(=O)N(Cc1ccccc1)Cc1ccccc1 (centres undefined) | 19 µM (inactive) | 21.3 µM (inactive) | 26.2 µM (inactive) | 18.4 µM (inactive) | 24.4 µM (inactive) | – | 27.7 µM (inactive) | – | –
7 | COC1(OC)CC2OC1C1N=NN(C(=O)OC(C)(C)C)C21 (centres undefined) | 67 µM (inactive) | > 100 µM (inactive) | > 100 µM (inactive) | > 100 µM (inactive) | > 100 µM (inactive) | > 100 µM (inactive) | > 100 µM (inactive) | > 100 µM (inactive) | > 100 µM (inactive)
8 | NNC(=S)N/N=C(\CC1OC(=O)c2ccccc21)c1ccccc1O (centres undefined) | 58.1 µM (inactive) | 50.9 µM (inactive) | 92.5 µM (inactive) | 53.1 µM (inactive) | 20.7 µM (inactive) | 26.5 µM (inactive) | 33 µM (inactive) | 34.2 µM (inactive) | 94.4 µM (inactive)
9 | C1CCN(c2nc(=[N+]3CCCCC3)ss2)CC1 | 31.1 µM (inactive) | > 100 µM (inactive) | > 100 µM (inactive) | > 100 µM (inactive) | > 100 µM (inactive) | > 100 µM (inactive) | > 100 µM (inactive) | > 100 µM (inactive) | > 100 µM (inactive)
10 | CCOC(=N)CC(=O)Nc1ccccc1 | 35.8 µM (inactive) | > 46.5 µM (inactive) | > 100 µM (inactive) | > 46.5 µM (inactive) | > 46.5 µM (inactive) | – | > 46.5 µM (inactive) | > 43.9 µM (inactive) | > 31.6 µM (inactive)
11 | COc1cccc2c1C(=O)c1c(O)c3c(c(O)c1C2=O)C[C@@](O)(C(=O)CO)C[C@@H]3OC1CC(N(C)C)C(O)C(C)O1 (some centres undefined) | – | < 0.0106 µM (active) | 0.0367 µM (active) | < 0.0174 µM (active) | – | – | 0.0453 µM (active) | 0.0149 µM (active) | 0.0805 µM (active)
12 | COC(=O)[C@@H]1[C@H](O)[C@H](C)[C@H](O)[C@@](C)(O)/C=C\C=C(\C)C(=O)Nc2c(C)c(OC(C)=O)c3c(c2O)C(=O)C(C)=C2OCOC(=C23)/C(C)=C/[C@@](C)(O)[C@H](O)[C@@H](C)[C@H]1OC(C)=O | 33.2 µM (inactive) and 624 nM (active) | > 100 µM (inactive) and 60 µM (inactive) | 57.1 µM (inactive) | 57.4 µM (inactive) | 11.5 µM (inactive) | – | > 66.8 µM (inactive) | – | 30.6 µM (inactive)
13 | Clc1cccc(C2SCc3nc4ccccc4n32)c1Cl (centres undefined) | 20.7 µM (inactive) | 15.9 µM (inactive) | 19.4 µM (inactive) | 15.9 µM (inactive) | 12.5 µM (inactive) | – | 38.1 µM (inactive) | 16 µM (inactive) | 18.1 µM (inactive)
14 | Nc1nc(O)c2nc(N)n(Cc3ccccc3)c2n1 | > 100 µM (inactive) | > 100 µM (inactive) | > 100 µM (inactive) | > 100 µM (inactive) | > 100 µM (inactive) | – | – | > 100 µM (inactive) | –
15 | CCOC(=O)C1C(=O)C(C(=O)OCC)C(c2ccccc2)N(C)C1c1ccccc1 (centres undefined) | 56 µM (inactive) | > 100 µM (inactive) | > 100 µM (inactive) | > 100 µM (inactive) | > 100 µM (inactive) | > 100 µM (inactive) | > 100 µM (inactive) | – | –
17 | Cc1ccccc1NC(=O)CC1C(=O)Nc2ccccc2[S+]1[O-] (centres undefined) | > 100 µM (inactive) | > 100 µM (inactive) | > 100 µM (inactive) | > 100 µM (inactive) | > 100 µM (inactive) | 93.8 µM (inactive) | > 100 µM (inactive) | 96.6 µM (inactive) | –
18 | CCn1c2ccccc2c2ccc3c(c21)C(=O)c1ccccc1C3=O | > 100 µM (inactive) | > 100 µM (inactive) | > 100 µM (inactive) | > 100 µM (inactive) | 24.2 µM (inactive) | – | > 100 µM (inactive) | > 100 µM (inactive) | > 100 µM (inactive)
19 | CC(=O)OC1C/C(C)=C/CCC(C)/C=C/C2(C)CCC(C(C)(C)O)C12 (centres undefined) | 34.6 µM (inactive) | 44.2 µM (inactive) | 49.4 µM (inactive) | 58.5 µM (inactive) | 28.9 µM (inactive) | – | 61.9 µM (inactive) | 39.4 µM (inactive) | > 100 µM (inactive)
20 | Nc1nc2c3nc(Nc4ccccc4)sc3nc(=O)n2c2sc(Nc3ccccc3)nc12 | – | > 100 µM (inactive) | > 100 µM (inactive) | > 100 µM (inactive) | > 100 µM (inactive) | – | > 100 µM (inactive) | > 100 µM (inactive) | > 100 µM (inactive)
21 | CCOc1ccc(/N=N/c2c(-c3ccccc3)nn(C(=O)CC(=O)Nc3ccccc3Cl)c2-c2ccccc2)cc1 | 23 µM (inactive) | 18.3 µM (inactive) | 56.4 µM (inactive) | 76 µM (inactive) | 54.8 µM (inactive) | – | 51.4 µM (inactive) | 28.4 µM (inactive) | > 100 µM (inactive)
22 | O=C1C=Cc2c(-c3ccccc3)oc3cccc1c23 | 17.8 µM (inactive) | 5.98 µM (inactive) | 27.2 µM (inactive) | 22.8 µM (inactive) | 23 µM (inactive) | 10.4 µM (inactive) | 48.3 µM (inactive) | 7.28 µM (inactive) | 15 µM (inactive)
23 | O=CC1=CCCN(CCc2c[nH]c3ccccc23)C1 | 40.6 µM (inactive) | 46.2 µM (inactive) | 65.8 µM (inactive) | 11.2 µM (inactive) | 72.8 µM (inactive) | 47 µM (inactive) | – | – | 57.3 µM (inactive)
